Test results from US6630312B2, “Method for identifying compounds for treatment of insulin resistance” (Joslin Diabetes Center, Inc., priority 1999, dated 2003).

How the values were obtained:
IRS-1 [1] = experiment: Insulin-stimulated tyrosine phosphorylation of IRS-1 in 3T3-L1 adipocytes made 'insulin resistant'; format: cell-based
Method: (§1) Culture cells were used as follows to investigate the mechanisms relating to salicylate treatment to the in vivo reversal of insulin resistance. TNF-α treatment of 3T3-L1 adipocytes induced ‘insulin resistance’, as judged by significant decreases in insulin-stimulated tyrosine phosphorylation of IR β-subunit (42±11%) and IRS-1 (37±9%). TNF-α mediated ‘insulin resistance’ was reversed by pretreatment with high-dose (5 mM) aspirin. IR and IRS-1 phosphorylation levels were restored to 126±24% and 136±35%, respectively, compared to untreated controls; IR and IRS-1 protein levels were unchanged in TNF-α and aspirin-treated cells. TNF-α activates a cascade of adapters and kinases, including TRADD, RIP, TRAF2, and TAB1, which act upstream of JNK, p38 MAPK, and the IKK complex. Okadaic acid and calyculin A, two phosphatase inhibitors, also activate IKKβ (DiDonato et al. (1997) Nature 388:548; Harhaj & Sun (1997) J Biol Chem 272:5409), but without activating upstream elements in the TNF-α signaling cascade. Okadaic acid and calyculin A also induce ‘insulin resistance’ in isolated tissues and cultured cells (Robinson et al (1993) Am J Physiol 265:E36; Paz et al (1997) J. Biol Chem 272:29911). Therefore, it was determined whether aspirin would reverse ‘insulin resistance’ caused by these inhibitors. Marked reductions in insulin-stimulated IR (29±12%) and IRS-1 (16±2%) tyrosine-phosphorylation were prevented by incubating the cells with high-dose aspirin (109±15% and 93±25%, respectively).
(§2) Hyperglycemia- and hyperinsulinemia-induced insulin resistance in diabetic subjects can be mimicked in cell culture by incubation with high concentrations of glucose and insulin. Potential mechanisms include glucose-induced activation of PKC, which can activate IKK. […] Concurrent treatment with aspirin restored IR (107±23%) and IRS-1 (90±23%) tyrosine-phosphorylation to levels seen in cells incubated at 5.5 mM glucose. […] Protein levels were restored by concurrent treatment with aspirin. Serine phosphorylation of IκB leads to ubiquitination and proteosome-mediated degradation. IRS proteins may be degraded by a similar route and in both cases, downregulation was inhibited by aspirin.

IRS-1 [2] = experiment: Electrophoretic mobility of IRS-1 from livers of treated animals; format: in vivo; details: animal livers; suggests decrease in Ser/Thr phosphorylation
Excerpt: In cultured cells, IRS proteins are especially prone to phosphorylation on serine and threonine residues, which opposes the effect of tyrosine phosphorylation by inhibiting signaling.

AKT kinase = experiment: Insulin-stimulated AKT phosphorylation in tissues from treated Zucker rats; format: in vivo, rat; details: liver and muscle of treated Zucker rats vs untreated
Method: (§3) Tissues were isolated from treated animals and insulin signaling proteins were analyzed. […] A cascade consisting of insulin receptor (IR), insulin-receptor substrate (IRS) proteins, PI 3-kinase and 3-phosphoinositide-dependent protein kinase-1 (PDK1), is required for maintenance of metabolic homeostasis.

Zucker fa/fa rats = experiment: Effects of high-dose salicylates in Zucker fa/fa rats (GTT, ITT, serum lipids, ALT); details: for Food intake, blood chemistry, or body weight: Zucker fa/fa rats
Excerpt: (§4) Ob/ob mice are leptin deficient.

Zucker fa/+ rats = experiment: Effects of high-dose aspirin in Zucker fa/+ rats (oral GTT); format: in vivo, rat; details: 120 mg/kg/day
Excerpt: as §4

IR β-subunit = experiment: Insulin-stimulated tyrosine phosphorylation of IR in 3T3-L1 adipocytes made 'insulin resistant'; format: cell-based; details: for IR and IRS-1 protein levels: TNF-α and aspirin-treated cells
Method: as §1, §2

ob/+ mice = experiment: Effects of high-dose aspirin in ob/+ mice (GTT); format: in vivo, mouse; details: aspirin treatment, 120 mg/kg/day; intraperitoneal GTT
Excerpt: as §4

ob/ob mice = details: 120 mg/kg/day; for Food intake, blood chemistry, or body weight: ob/ob mice
Method: FIGS. 1A-H: In vivo effects of aspirin in Zucker fatty rats and ob/ob mice. (panels A-F) Twelve-week-old male Zucker rats (Harlan) and (panels G,H) eight-week-old ob/ob and ob/+ mice (Jackson Labs) were given free access to food and water. […] For glucose tolerance tests (GTT), glucose (2.0 g/kg) was administered by oral gavage (rats) or intraperitoneal injection (mice) after an overnight fast. (panels A,C) Blood glucose and (panels B,D) serum insulin levels were determined during oral glucose tolerance tests in (panels A,B) six Zucker fa/fa rats and (panels C,D) six fa/+ rats. For insulin tolerance tests (ITT) in (panel E) six Zucker fa/fa rats, insulin (2.0 U/kg) was injected intraperitoneally after an overnight fast. (panel F) Cholesterol (Chol), triglyceride (TG), long chain free fatty acid (FFA), and liver alanine aminotransferase (ALT) levels were measured in sera from fasting Zucker fa/fa rats. Glucose tolerance tests were conducted with (panel G) ten ob/ob mice and (panel H) ten ob/+ mice. Data are mean±SEM values; some SEM values are within the area of the symbols.
A determination of the effects of high-dose salicylates on obese rodents with severe insulin resistance was performed as follows. Twelve-week-old male Zucker fa/fa rats and eight-week-old male ob/ob mice were treated for 3-4 weeks with 120 mg/kg/day of aspirin or salicylate, administered by continuous subcutaneous infusion; this dose is roughly equivalent to 5-10 g/day in humans.

IKKβ [3] = target: T1, IKKβ (Homo sapiens, UniProt O14920); details: Yin et al (1998); cited from earlier work
T1 sequence (O14920 1-756): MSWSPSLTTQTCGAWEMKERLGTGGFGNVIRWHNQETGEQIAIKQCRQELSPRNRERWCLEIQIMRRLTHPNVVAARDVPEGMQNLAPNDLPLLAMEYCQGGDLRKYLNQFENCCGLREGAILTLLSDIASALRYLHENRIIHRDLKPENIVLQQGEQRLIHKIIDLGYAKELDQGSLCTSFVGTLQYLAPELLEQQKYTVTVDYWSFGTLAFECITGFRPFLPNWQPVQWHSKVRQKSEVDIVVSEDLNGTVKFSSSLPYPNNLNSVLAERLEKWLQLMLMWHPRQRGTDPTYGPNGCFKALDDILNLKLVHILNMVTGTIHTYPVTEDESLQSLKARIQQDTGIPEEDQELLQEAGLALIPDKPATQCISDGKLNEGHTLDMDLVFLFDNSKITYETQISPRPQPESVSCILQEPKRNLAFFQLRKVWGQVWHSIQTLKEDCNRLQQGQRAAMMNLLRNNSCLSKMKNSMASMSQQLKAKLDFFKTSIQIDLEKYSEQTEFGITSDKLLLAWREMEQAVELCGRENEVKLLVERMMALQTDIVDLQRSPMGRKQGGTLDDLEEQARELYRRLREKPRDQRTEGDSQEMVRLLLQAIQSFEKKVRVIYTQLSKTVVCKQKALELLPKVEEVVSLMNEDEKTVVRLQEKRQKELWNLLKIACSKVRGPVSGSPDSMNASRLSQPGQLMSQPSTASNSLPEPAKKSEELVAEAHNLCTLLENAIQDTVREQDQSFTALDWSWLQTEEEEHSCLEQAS

cyclooxygenases = details: Furst (1994); cited from earlier work
Insulin receptor (IR) = experiment: Insulin receptor tyrosine autophosphorylation in tissues from treated Zucker rats; format: in vivo, rat; details: liver and muscle of treated Zucker rats vs untreated
Method: as §3

Sprague-Dawley rats = experiment: Insulin sensitivity in Sprague-Dawley rats on aspirin treatment; format: in vivo, rat; details: rats not insulin resistant, obese, or diabetic
IR, IRS-2 and AKT = experiment: Insulin-stimulated activation of IR, IRS-2 and AKT in HEK293 cells expressing IKKβ, IKKα or NIK; format: cell-based; details: treatment with aspirin
Excerpt: To directly test the potential role of IKK, The IKKα and IKKβ catalytic subunits and NIK, an upstream activator, were expressed in HEK293 cells. Insulin stimulated the activation of IR, IRS-2 and AKT in these cells. Activation was attenuated by expression of IKKβ, IKKα or NIK. Attenuated activation was reversed by treatment with aspirin.

IRS-2 = experiment: Tyrosine phosphorylation of IRS-2 in Fao hepatoma cells, TNF-α induced 'insulin resistance'; format: cell-based; details: for Tyrosine-phosphorylation of IRS-2: Fao hepatoma cells; for Reversal of TNF-α induced 'insulin resistance': doses known to have potent biological effects, cells not restated
IKKβ [4] = details: without activating upstream elements in the TNF-α signaling cascade; cited from earlier work
[5] = tested on: isolated tissues and cultured cells; details: cited from earlier work
AKT = AKT activation in 293 cells; format: cell-based; details: TNF-α treatment
Excerpt: (§5) However, TNF-α is a potential mediator of acquired insulin resistance (Lang et al. (1992) Endocrinology 130:43; Feinstein et al. (1993) J Biol Chem 268:26055; Hotamisligil et al. (1993) Science 259:87; Hotamisligil et al. (1994) J Clin Invest 94:1543). TNF-α activates the IKK complex. TNF-α treatment of untransfected 293 cells reduced insulin-stimulated IR activation to 29±2% of untreated controls. Expression of kinase deficient, dominant inhibitory IKKα(K44A) or IKKβ(K44A) reversed TNF-α-inhibited IR activation. In fact, dominant-inhibitory IKKβ caused a 60% increase in insulin-stimulated IR tyrosine-phosphorylation over controls, whether or not cells had been treated with TNF-α. […] There is in vivo support for this, as well.

IR = experiment: Insulin-stimulated IR activation in untransfected 293 cells; format: cell-based; details: TNF-α treatment
Excerpt: as §5

[6] = 120 mg/kg/day continuous subcutaneous infusion
Excerpt: as §4

[7] = 3T3-L1 adipocytes overnight in 25 mM glucose and 10 nM insulin, concurrent aspirin, relative to cells at 5.5 mM glucose
[8] = 3T3-L1 adipocytes, TNF-α, pretreatment with 5 mM aspirin
[9] = phosphatase inhibitor-induced 'insulin resistance', cells incubated with high-dose aspirin
[10] = 3T3-L1 adipocytes, TNF-α treatment alone

CC(=O)Oc1ccccc1C(=O)O [aspirin]
Insulin-stimulated IRS-1 tyrosine-phosphorylation (IRS-1 [1]; [7]): 90±23% | IRS-1 phosphorylation level compared to untreated controls (IRS-1 [1]; [8]): 136±35% | Insulin-stimulated IRS-1 tyrosine-phosphorylation (IRS-1 [1]; [9]): 93±25% | Reduced electrophoretic mobility of IRS-1 due to calyculin A-induced phosphorylation (IRS-1 [1]; with aspirin): reversed | Electrophoretic mobility of IRS-1 (IRS-1 [2]): increased | Insulin-stimulated AKT phosphorylation (AKT kinase): increased | Insulin levels during glucose tolerance test (Zucker fa/fa rats; 120 mg/kg/day continuous subcutaneous infusion, 3-4 weeks, oral GTT): Concomitant reductions | Fasting blood glucose values and glucose tolerance (Zucker fa/fa rats; 120 mg/kg/day continuous subcutaneous infusion, 3-4 weeks, oral GTT, compared to untreated controls): improved | Food intake, blood chemistry, or body weight (Zucker fa/fa rats; 120 mg/kg/day): Neither aspirin nor salicylate affected | Free fatty acid (FFA) levels (Zucker fa/fa rats; after the treatment period, aspirin 120 mg/kg/day): 1.1 ± 0.2 mM | Fasting triglyceride levels (Zucker fa/fa rats; after three weeks of aspirin treatment, 120 mg/kg/day): 90 ± 58 mg/dL | Cholesterol levels (Zucker fa/fa rats; fasting serum, aspirin 120 mg/kg/day): unaffected | Blood glucose in insulin tolerance test (Zucker fa/fa rats; intraperitoneal insulin 2.0 U/kg after overnight fast, aspirin-treated animals): dramatic decreases | Time to drop in FFA levels after aspirin initiation (Zucker fa/fa rats; preceding reductions in triglyceride and glucose levels): ≤ 1 week | Serum levels of liver enzyme alanine aminotransferase (ALT) (hepatotoxicity) (Zucker fa/fa rats; throughout the studies): normal, low | Insulin levels during glucose tolerance test (Zucker fa/+ rats; aspirin-treated group): Significantly lower | Glucose levels during glucose tolerance test (Zucker fa/+ rats; following aspirin treatment): marginally reduced | Insulin-stimulated IR tyrosine-phosphorylation (IR β-subunit; [7]): 107±23% | IR and IRS-1 protein levels (IR β-subunit; 3T3-L1 adipocytes): unchanged | IR phosphorylation level compared to untreated controls (IR β-subunit; [8]): 126±24% | Protein levels of insulin signaling proteins downregulated by high glucose and insulin (IR β-subunit; 3T3-L1 adipocytes, concurrent treatment with aspirin): restored | Insulin-stimulated IR tyrosine-phosphorylation (IR β-subunit; [9]): 109±15% | Glucose intolerance (ob/+ mice): normalized | Fasting blood glucose values and glucose tolerance (ob/ob mice; 3-4 weeks, intraperitoneal GTT, compared to untreated controls, every time point): significantly improved | Food intake, blood chemistry, or body weight (ob/ob mice): Neither aspirin nor salicylate affected | Inhibition of IKKβ, relative potency (IKKβ [3]): equipotent inhibitors | Potency towards the cyclooxygenases, aspirin relative to sodium salicylate (cyclooxygenases): ~100 fold | Insulin receptor (IR) tyrosine autophosphorylation (Insulin receptor (IR)): Significantly increased stimulation | Insulin sensitivity (Sprague-Dawley rats): increased insulin sensitivity | Activation of IR, IRS-2 and AKT attenuated by expression of IKKβ, IKKα or NIK (IR, IRS-2 and AKT): reversed | Tyrosine-phosphorylation of IRS-2 (IRS-2; TNF-α plus drug): 115±31%

C=C1[C@@H](O)[C@@H]2O[C@]3(CC[C@H](/C=C/[C@@H](C)[C@@H]4CC(C)=C[C@@]5(O[C@H](C[C@@](C)(O)C(=O)O)CC[C@H]5O)O4)O3)CC[C@H]2O[C@@H]1[C@@H](O)C[C@H](C)[C@H]1O[C@@]2(CCCCO2)CC[C@H]1C [Okadaic acid]
Effect on IKKβ (IKKβ [4]): activate | 'Insulin resistance' in isolated tissues and cultured cells [5]: induce

TNF-α
Insulin-stimulated tyrosine phosphorylation of IRS-1 (IRS-1 [1]; [10]): 37±9% | IR and IRS-1 protein levels (IR β-subunit; 3T3-L1 adipocytes): unchanged | Insulin-stimulated tyrosine phosphorylation of IR β-subunit (IR β-subunit; [10]): 42±11% | AKT activation (AKT): 18±15% | Insulin-stimulated IR activation, of untreated controls (IR): 29±2% | Tyrosine-phosphorylation of IRS-2 (IRS-2; TNF-α treatment alone): 39±9%

COC[C@@H]([C@H](O)[C@H](O)C(=O)NCC[C@H](C)c1nc(/C=C/C[C@@H]2O[C@]3(C[C@@H](O)[C@@H]2C)O[C@H]([C@H](C[C@H](O)[C@H](C)[C@H](O)[C@H](C)/C=C(C)/C(C)=C/C=C/C(C)=C\C#N)OC)[C@H](OP(=O)(O)O)C3(C)C)co1)N(C)C [calyculin A]
Effect on IKKβ (IKKβ [4]): activate | 'Insulin resistance' in isolated tissues and cultured cells [5]: induce

COc1ccc2cc([C@H](C)C(=O)O)ccc2c1 [naproxen]
Reversal of TNF-α induced 'insulin resistance' (IRS-2): Neither ibuprofen nor naproxen, two NSAID inhibitors of COX1 and COX2, reversed

O=C([O-])c1ccccc1O.[Na+] [salicylate, sodium salicylate]
Electrophoretic mobility of IRS-1 (IRS-1 [2]): increased | Insulin-stimulated AKT phosphorylation (AKT kinase): increased | Food intake, blood chemistry, or body weight (Zucker fa/fa rats; 120 mg/kg/day): Neither aspirin nor salicylate affected | Food intake, blood chemistry, or body weight (ob/ob mice): Neither aspirin nor salicylate affected | Inhibition of IKKβ, relative potency (IKKβ [3]): equipotent inhibitors | Serum salicylate levels, mean [6]: 0.81 ± 0.25 mM | Serum salicylate levels, range [6]: 0.3 to 1.3 mM | Insulin receptor (IR) tyrosine autophosphorylation (Insulin receptor (IR)): Significantly increased stimulation | Tyrosine-phosphorylation of IRS-2 (IRS-2; TNF-α plus drug): 89±8%

CC(C)Cc1ccc(C(C)C(=O)O)cc1 (centres unmarked) [ibuprofen]
Reversal of TNF-α induced 'insulin resistance' (IRS-2): Neither ibuprofen nor naproxen, two NSAID inhibitors of COX1 and COX2, reversed

CS(=O)(=O)Nc1ccc([N+](=O)[O-])cc1OC1CCCCC1 [NS-398]
Reversal of TNF-α induced 'insulin resistance' (IRS-2): no effect
